Earlier results on one compound are cited in patent US20200261400A1, “METHOD FOR LONG-TERM TREATMENT OF ROSACEA” (Sol-Gel Technologies Ltd., priority 2019, published 2020).

This data set concerns rosacea lesions. The following applies: BPO as the sole active agent.

Take `O=C(OOC(=O)c1ccccc1)c1ccccc1` [BPO, Benzoyl peroxide]: the response of lesions entry is “unresponsive”.
